Tests used:
[1] = Membrane permeabilization experiment on OMV-derived membrane; type: in vitro ADME, Escherichia coli; conditions: for effect of membrane-perturbating agent on the OMV-derived model: permeability of fusidic acid or fluorescein as readout
Method: Experiments were conducted on OMVs of E. coli BL21 DE3 Omp8 as stated above with some modifications. […] After 30 min, solutions were removed and the standard protocol was followed employing 200 × 10^−6 M fusidic acid solution and sampling after 5, 10, 15, 20, 25, 30, 45, and 60 min. The quantification was done via LC–MS/MS.
(§1) Afterward 240 µL of 10 × 10^−6 M fluorescein solution in PBS (pH 7.4) was added and 40 µL samples were drawn after 5, 10, 15, 20, 25, 30, 45, and 60 min and diluted 1 in 5 prior to fluorimetric quantification (λ ex = 485 nm, λ em = 530 nm).

[2] = Permeation across porin-deficient E. coli BL21 DE3 Omp8 OMV-derived membrane model; conditions: standard permeation assay, 200 × 10^−6 M
Method: (§2) 30 µL of the OMV or liposome suspension were given on top of membrane filters of a 96‐well filter plate (MultiScreen 96‐well filter plates with 0.4 µm PCTE membrane). Afterwards, filters were dried at 37°C inside a Memmert UF55 universal oven (fan at 100%). This process was repeated another two times. A six‐fold coating procedure was only followed for SEM‐imaging purposes. For permeation studies, the obtained coatings were covered with 40 µl of 0.5% w/v agarose solution using a direct diplacement pipette. Prior to permeation studies, the bottom of the coated filter was also coated with a thin film of 0.5% w/v agarose using a small brush.
(§3) Coated wells were incubated on the apical and basolateral side for 30 min with PBS (pH 7.4) at 37°C while shaken at 180 rpm. After incubation, 230 µL of pre‐warmed 200 × 10^−6 M antibiotic donor solution (37°C) replaced the PBS in the respective donor wells, while 30 µL were immediately removed and diluted 1:10. The absorbance of these dilutions was measured in a receiver plate using a Tecan Infinite 200 PRO (Tecan Trading AG, Maennedorf, Switzerland) plate reader. (Table S1, Supporting Information) 300 µL of fresh PBS were given into the acceptor wells of the receiver plate followed by absorbance measurements. Donor and acceptor plates were reassembled, incubated, and disassembled after 10, 20, 30, 45, 60, 90, and 120 min to measure the absorbance in the acceptor wells.

[3] = Membrane permeabilization experiment on bacteriomimetic liposome-derived model; type: in vitro ADME; conditions: fluorescein 10 × 10^−6 M after 30 min incubation with 83.1 × 10^−6 M PMB vs PBS
Method: as §1

[4] = not told
Method: as §2
as §3, with “After incubation, 230 µL of pre‐warmed 200 × 10^−6 M antibiotic donor solution (37°C) replaced the PBS in the respective donor wells, while 30 µL were immediately removed and diluted 1:10.” left out

[5] = Comparison of P app among four vesicle-derived membrane models; type: in vitro ADME; conditions: 200 × 10^−6 M; Figure 11
Excerpt: This process was repeated another two times.

[6] = Porin-blocking experiment with spermine on porin-deficient membrane model; conditions: 15 × 10^−6 M norfloxacin, no spermine
Method: (§4) Experiments were performed on OMVs of E. coli strains BL21 DE3 and BL21 DE3 Omp8. The procedure followed the standard protocol for permeability studies with some modifications. The membranes were incubated on both sides for 30 min either with 140 × 10^−3 M spermine solution in PBS (pH7.4) or blank PBS. […] Samples of 40 µL were taken after 5, 10, 15, 20, 25, and 30 min and analyzed by LC–MS/MS.
(§5) An Accela UHPLC System‐Coupled TSQ Quantum Access Max tandem quadrupole mass spectrometer (both from Thermo Fisher Scientific, Waltham, MA, USA) was employed. The entire system was operated via Xcalibur 219 software (Thermo Fisher Scientific, Waltham, MA, USA). The detection of the compounds in the MS happened after heated electrospray ionization (H‐ESI) in positive ion mode. The chromatographic analysis was performed with a binary solvent mixture using optionally acetonitrile + 0.1% formic acid (A), MilliQ‐water + 0.1% formic acid (B), methanol + 0.1% formic acid (C), or ammonium formate buffer (10 × 10^−3 M, pH 3, D). […]
(§6) Raw data obtained from the respective analytical readouts of transport studies were converted to their corresponding concentration via external calibration. […]
(§7) The apparent permeability coefficient (P app) was calculated according to the following formula: (2) Pappcm∗s^−1=J/c0 where c 0 is the initial donor concentration (µg cm^− ^3) and J (µg cm^− ^2*s) the compound flux.

[7] = Porin-blocking experiment with spermine on porin-containing membrane model; conditions: 15 × 10^−6 M norfloxacin, 140 × 10^−3 M spermine; Figure 10B
Method: as §4, §5, §6, §7

[8] = Impact of agarose gel and vesicle coating on compound permeation; conditions: P app; 0.5% w/v agarose gel; Figure 7
Method: as §2, §3

CC(=O)O[C@H]1C[C@@]2(C)[C@@H](C[C@@H](O)[C@H]3[C@@]4(C)CC[C@@H](O)[C@@H](C)[C@@H]4CC[C@@]32C)/C1=C(\CCC=C(C)C)C(=O)O [Fusidic acid]
change in permeability after membrane-perturbating agent ([1]; fusidic acid 200 × 10^−6 M after 30 min incubation with 103.8 × 10^−6 M PMBN vs PBS): none of the membrane‐perturbating agents caused significant changes

O=C(N[C@H](CO)[C@H](O)c1ccc([N+](=O)[O-])cc1)C(Cl)Cl [chloramphenicol]
permeability compared with the porin-containing BL21 DE3 OMV-derived model [2]: did not lead to a significant drop of permeation

O=C1OC2(c3ccc(O)cc3Oc3cc(O)ccc32)c2ccccc21 [fluorescein]
change in permeability after membrane-perturbating agent ([1]; fluorescein 10 × 10^−6 M after 30 min incubation with 83.1 × 10^−6 M PMB vs PBS): none of the membrane‐perturbating agents caused significant changes
permeation after treatment with PMB [3]: permeated significantly slower

CCn1cc(C(=O)O)c(=O)c2ccc(C)nc21 [nalidixic acid]
permeability across the eukaryotic membrane model compared with the other models [4]: increased
difference in permeability throughout the OMV- and the bacteriomimetic liposome-based model [5]: no significant difference

CCn1cc(C(=O)O)c(=O)c2cc(F)c(N3CCNCC3)cc21 [norfloxacin]
permeability compared with the porin-containing BL21 DE3 OMV-derived model [2]: lower
permeability compared with the porin-containing model [6]: significantly decreased permeability
permeability coefficients in presence vs absence of spermine [7]: significantly different

CO[C@@H]1[C@@H](OC(N)=O)[C@@H](O)[C@H](Oc2ccc3c(O)c(NC(=O)c4ccc(O)c(CC=C(C)C)c4)c(=O)oc3c2C)OC1(C)C [novobiocin]
permeability with the vesicle coating compared to pure agarose gel coating [8]: significantly lower

CO[C@H]1/C=C/O[C@@]2(C)Oc3c(C)c(O)c4c(O)c(c(/C=N/N5CCN(C)CC5)c(O)c4c3C2=O)NC(=O)/C(C)=C\C=C\[C@H](C)[C@H](O)[C@@H](C)[C@@H](O)[C@@H](C)[C@H](OC(C)=O)[C@@H]1C [rifampicin]
permeability across the eukaryotic membrane model compared with the other models [4]: comparable permeability
permeability with the vesicle coating compared to pure agarose gel coating [8]: significantly lower
difference in permeability throughout the OMV- and the bacteriomimetic liposome-based model [5]: no significant difference

CN(C)[C@@H]1C(O)=C(C(N)=O)C(=O)[C@@]2(O)C(O)=C3C(=O)c4c(O)cccc4[C@@](C)(O)[C@H]3C[C@@H]12 [tetracycline]
permeability compared with the porin-containing BL21 DE3 OMV-derived model [2]: did not lead to a significant drop of permeation
permeability with the vesicle coating compared to pure agarose gel coating [8]: significantly lower

CN[C@H](CC(C)C)C(=O)N[C@H]1C(=O)N[C@@H](CC(N)=O)C(=O)N[C@H]2C(=O)N[C@H]3C(=O)N[C@H](C(=O)N[C@H](C(=O)O)c4cc(O)cc(O)c4-c4cc3ccc4O)[C@H](O)c3ccc(c(Cl)c3)Oc3cc2cc(c3O[C@@H]2O[C@H](CO)[C@@H](O)[C@H](O)[C@H]2O[C@H]2C[C@](C)(N)[C@H](O)[C@H](C)O2)Oc2ccc(cc2Cl)[C@H]1O [vancomycin]
trend of permeability the fewer outer membrane features the model has [5]: gradual decrease of permeability

PMB nonapeptide [PMBN]
effect of membrane-perturbating agent on the OMV-derived model [1]: lack of effect

Polymyxin B [PMB]
effect of membrane-perturbating agent on the OMV-derived model [1]: lack of effect

From paper PMC11468809, “An Outer Membrane Vesicle‐Based Permeation Assay (OMPA) for Assessing Bacterial Bioavailability” (Advanced Healthcare Materials, 2021)
